Experimental data from the NIST ThermoML archive (doi:10.1021/je060253t).
Several values for one entry are separate records, joined by “and”; a condition that tells them apart may be missing. Identical values can stand only once. Numbers after ± are expanded uncertainties.

Details: 313.15 K; Liquid; Closed cell (Static) method

vapor or sublimation pressure | Compound
37.3 ± 0.14 kPa and 37.25 ± 0.14 kPa | CCCCCC [hexane]
59.92 ± 0.21 kPa and 59.91 ± 0.21 kPa | COC(C)(C)C [2-methoxy-2-methylpropane]

Compound | vapor or sublimation pressure
CCCO [propan-1-ol] | 6.999 ± 0.038 kPa and 7.007 ± 0.038 kPa and 7 ± 0.038 kPa
